Measurements from publication PMC9304322, “Targeting retinoic acid receptor alpha-corepressor interaction activates chaperone-mediated autophagy and protects against retinal degeneration” (Nature Communications, 2022).
Where “and” joins values, the source holds several entries; their conditions need not be identical. Equal values may be shown once.

Columns and labels:
[1] = system: NIH3T3 cells; test: Microarray transcriptional changes; assay type: cell-based, mouse; parameters: Ratio of expression relative to untreated cells, Crtam (NM_019465) / Ratio of expression relative to untreated cells, 4930594C11Rik (NR_024017) / Ratio of expression relative to untreated cells, Non-coding chr6:36765550-36793825_F / Ratio of expression relative to untreated cells, Anti-sense ENSMUST00000097448 / Ratio of expression relative to untreated cells, Non-coding chr1:64232564-64349617_R / Ratio of expression relative to untreated cells, Foxa2 (NM_010446) / Ratio of expression relative to untreated cells, Non-coding chr15:83266264-83294664_F / Ratio of expression relative to untreated cells, Nqo1 (NM_008706) / Ratio of expression relative to untreated cells, Gsta4 (NM_010357) / Ratio of expression relative to untreated cells, E330014E10Rik (NM_001122668) / Ratio of expression relative to untreated cells, AU017674 (CK334688) / Ratio of expression relative to untreated cells, Defb12 (NM_152802) / Ratio of expression relative to untreated cells, Non-coding chr1:138570107-138632310_F / Ratio of expression relative to untreated cells, Non-coding chr16:39984031-40081556_R / Ratio of expression relative to untreated cells, Gm5106 (XR_168418) / Ratio of expression relative to untreated cells, Ushbp1 (NM_181418) / Ratio of expression relative to untreated cells, Non-coding chr11:70196232-70203307_R / Ratio of expression relative to untreated cells, Eno4 (NM_178689) / Ratio of expression relative to untreated cells, Non-coding chr13:64044376-64045368_R / Ratio of expression relative to untreated cells, Dsg4 (AY170623) / Ratio of expression relative to untreated cells, Stx2 (NM_007941) / Ratio of expression relative to untreated cells, Non-coding chr12:52944867-52971992_R / Ratio of expression relative to untreated cells, Htr1b (NM_010482) / Ratio of expression relative to untreated cells, Non-coding chr16:44717531-44724206_F / Ratio of expression relative to untreated cells, Non-coding chr5:54053328-54053870_F: unit not given here; settings: 20μM for 24 h; for Ratio of expression relative to untreated cells, 4930594C11Rik (NR_024017) / Ratio of expression relative to untreated cells, Anti-sense ENSMUST00000097448 / Ratio of expression relative to untreated cells, Crtam (NM_019465) / Ratio of expression relative to untreated cells, Defb12 (NM_152802) / Ratio of expression relative to untreated cells, Dsg4 (AY170623) / Ratio of expression relative to untreated cells, Eno4 (NM_178689) / Ratio of expression relative to untreated cells, Foxa2 (NM_010446) / Ratio of expression relative to untreated cells, Gm5106 (XR_168418) / Ratio of expression relative to untreated cells, Htr1b (NM_010482) / Ratio of expression relative to untreated cells, Non-coding chr1:64232564-64349617_R / Ratio of expression relative to untreated cells, Non-coding chr5:54053328-54053870_F / Ratio of expression relative to untreated cells, Non-coding chr6:36765550-36793825_F / Ratio of expression relative to untreated cells, Non-coding chr11:70196232-70203307_R / Ratio of expression relative to untreated cells, Non-coding chr12:52944867-52971992_R / Ratio of expression relative to untreated cells, Non-coding chr13:64044376-64045368_R / Ratio of expression relative to untreated cells, Non-coding chr15:83266264-83294664_F / Ratio of expression relative to untreated cells, Non-coding chr16:39984031-40081556_R / Ratio of expression relative to untreated cells, Non-coding chr16:44717531-44724206_F / Ratio of expression relative to untreated cells, Ushbp1 (NM_181418) / Ratio of expression relative to untreated cells, AU017674 (CK334688) / Ratio of expression relative to untreated cells, E330014E10Rik (NM_001122668) / Ratio of expression relative to untreated cells, Gsta4 (NM_010357) / Ratio of expression relative to untreated cells, Non-coding chr1:138570107-138632310_F / Ratio of expression relative to untreated cells, Nqo1 (NM_008706): NIH3T3; for Ratio of expression relative to untreated cells, 4930594C11Rik (NR_024017) / Ratio of expression relative to untreated cells, Anti-sense ENSMUST00000097448 / Ratio of expression relative to untreated cells, Crtam (NM_019465) / Ratio of expression relative to untreated cells, Defb12 (NM_152802) / Ratio of expression relative to untreated cells, Dsg4 (AY170623) / Ratio of expression relative to untreated cells, Eno4 (NM_178689) / Ratio of expression relative to untreated cells, Foxa2 (NM_010446) / Ratio of expression relative to untreated cells, Gm5106 (XR_168418) / Ratio of expression relative to untreated cells, Htr1b (NM_010482) / Ratio of expression relative to untreated cells, Non-coding chr1:64232564-64349617_R / Ratio of expression relative to untreated cells, Non-coding chr5:54053328-54053870_F / Ratio of expression relative to untreated cells, Non-coding chr6:36765550-36793825_F / Ratio of expression relative to untreated cells, Non-coding chr11:70196232-70203307_R / Ratio of expression relative to untreated cells, Non-coding chr12:52944867-52971992_R / Ratio of expression relative to untreated cells, Non-coding chr13:64044376-64045368_R / Ratio of expression relative to untreated cells, Non-coding chr15:83266264-83294664_F / Ratio of expression relative to untreated cells, Non-coding chr16:39984031-40081556_R / Ratio of expression relative to untreated cells, Non-coding chr16:44717531-44724206_F / Ratio of expression relative to untreated cells, Ushbp1 (NM_181418): direction Down; for Ratio of expression relative to untreated cells, AU017674 (CK334688) / Ratio of expression relative to untreated cells, E330014E10Rik (NM_001122668) / Ratio of expression relative to untreated cells, Gsta4 (NM_010357) / Ratio of expression relative to untreated cells, Non-coding chr1:138570107-138632310_F / Ratio of expression relative to untreated cells, Nqo1 (NM_008706): direction Up
Procedure: Total RNA of the treated cells was extracted using TRIzol (Invitrogen) and purified with RNeasy chromatography (Qiagen). Cy3-labeled RNA (0.6 μg) from each condition was hybridized to Agilent Mouse 8x60K. Data were processed using the oligo package and normalized using Robust Multiarray Average (RMA) method. […] Pathway analysis was performed using the STRING database ([…]).

[2] = In vitro solubility by nephelometry; assay type: physicochemical; settings: in words
Procedure: In vitro solubility in the following conditions A) HBSS/HEPES 10 mM/BSA 0.1% pH 6 B) HBSS/HEPES 10 mM/BSA 0.1% pH 7.4 C) TRIS/BSA 0.1% PBS (pH 7.4 and at indicated doses were measured by Nephelometry using the NEPHELOstar Galaxy apparatus (BMG Lab Technologies). In vitro stability in human, mouse and rat liver microsomes and permeability using a bidirectional permeability assay with CaCo-2 cells (pH 6.5/7.4) assays were performed with standard methodology and analyzed by LC-MS/MS. at SIMM-SERVIER joint Biopharmacy Laboratory. ADME properties for CA39 and CA77 were predicted by QikProp (Schrödinger, LLC, Releases 2016-2020) software.

[3] = Pharmacokinetic analysis, plasma and brain;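 for Fig. 3b level, single animals 1-3: brain concentration in ng/g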; assay type: in vivo, ICR (CD-1) male mice; parameters: Fig. 3a level, single animals 1-3 / Fig. 3b level, single animals 1-3: unit not given here; settings: for Fig. 3a level, single animals 1-3 / Fig. 3b level, single animals 1-3: IV, Time 0.083 h; for predicted brain concentration: intraperitoneal 30 mg/kg bw, converted from Cmax or AUC (CA39: AUC and extended half-life)

SMILES	Ratio of expression relative to untreated cells, Stx2 (NM_007941) [1]	Ratio of expression relative to untreated cells, 4930594C11Rik (NR_024017) [1]	Ratio of expression relative to untreated cells, Anti-sense ENSMUST00000097448 [1]	Ratio of expression relative to untreated cells, Crtam (NM_019465) [1]	Ratio of expression relative to untreated cells, Defb12 (NM_152802) [1]	Ratio of expression relative to untreated cells, Dsg4 (AY170623) [1]	Ratio of expression relative to untreated cells, Eno4 (NM_178689) [1]	Ratio of expression relative to untreated cells, Foxa2 (NM_010446) [1]	Ratio of expression relative to untreated cells, Gm5106 (XR_168418) [1]	Ratio of expression relative to untreated cells, Htr1b (NM_010482) [1]	Ratio of expression relative to untreated cells, Non-coding chr1:64232564-64349617_R [1]	Ratio of expression relative to untreated cells, Non-coding chr5:54053328-54053870_F [1]	Ratio of expression relative to untreated cells, Non-coding chr6:36765550-36793825_F [1]	Ratio of expression relative to untreated cells, Non-coding chr11:70196232-70203307_R [1]	Ratio of expression relative to untreated cells, Non-coding chr12:52944867-52971992_R [1]	Ratio of expression relative to untreated cells, Non-coding chr13:64044376-64045368_R [1]	Ratio of expression relative to untreated cells, Non-coding chr15:83266264-83294664_F [1]	Ratio of expression relative to untreated cells, Non-coding chr16:39984031-40081556_R [1]	Ratio of expression relative to untreated cells, Non-coding chr16:44717531-44724206_F [1]	Ratio of expression relative to untreated cells, Ushbp1 (NM_181418) [1]	also measured
Clc1ccc2c(c1)OCC(c1ccc(-c3ccccc3)cc1)=N2 [CA39]	0.118	0.02758	0.03251	0.02443	0.01369	0.04187	0.1079	0.05303	0.2892	0.02191	0.044	0.08567	0.01728	0.1333	0.02965	0.157	0.07415	0.3908	0.01733	0.1898	Ratio of expression relative to untreated cells, AU017674 (CK334688) [1]: 18.0101; Ratio of expression relative to untreated cells, E330014E10Rik (NM_001122668) [1]: 1.584; Ratio of expression relative to untreated cells, Gsta4 (NM_010357) [1]: 2.331; Ratio of expression relative to untreated cells, Non-coding chr1:138570107-138632310_F [1]: 7.863; Ratio of expression relative to untreated cells, Nqo1 (NM_008706) [1]: 1.3; solubility [2]: reasonable; Fig. 3a level, single animals 1-3 [3]: 52.0116 and 70.6516 and 60.713; Fig. 3b level, single animals 1-3 [3]: 52.0116 and 70.6516 and 60.713; predicted brain concentration [3]: 10 to 20 µM
CC(=O)Nc1ccc(C2=Nc3ccc(Cl)cc3OC2)cc1 [CA77]	0.09232	0.0118	0.02606	0.02383	0.01656	0.02136	0.2317	0.03773	0.09934	0.04553	0.03926	0.08612	0.01829	0.1429	0.03376	0.1362	0.06682	0.07815	0.03891	0.1648	Ratio of expression relative to untreated cells, AU017674 (CK334688) [1]: 22.5451; Ratio of expression relative to untreated cells, E330014E10Rik (NM_001122668) [1]: 33.8974; Ratio of expression relative to untreated cells, Gsta4 (NM_010357) [1]: 18.7705; Ratio of expression relative to untreated cells, Non-coding chr1:138570107-138632310_F [1]: 6.319; Ratio of expression relative to untreated cells, Nqo1 (NM_008706) [1]: 4.968; solubility [2]: reasonable; Fig. 3a level, single animals 1-3 [3]: 52.9 and 41.4 and 14.2; Fig. 3b level, single animals 1-3 [3]: 3773 and 2943 and 693; predicted brain concentration [3]: 5 to 20 µM
